ChEMBL document CHEMBL4706743, “2-Cyanoisonicotinamide Conjugation: A Facile Approach to Generate Potent Peptide Inhibitors of the Zika Virus Protease” (ACS Med Chem Lett, 2021)

Assay: Inhibition of Zika virus NS2B (45 to 96 residues)/N-terminal thrombin cleavage fused and His6-tagged NS3 (1 to 177 residues) protease expressed in Escherichia coli using Bz-Nle-Lys-Lys-Arg-AMC as substrate preincubated for 10 mins followed by substrate addition and measured for 5 mins by fluorophotometric analysis

Compound	Ki [µM]
N=C(N)NCCC[C@@H]1NC(=O)[C@H](CCCCN)NC(=O)CNC(=O)[C@@H]2CSC(=N2)c2cc(ccn2)C(=O)NCC[C@@H](C(N)=O)NC(=O)[C@H](CCCCN)NC1=O	14.3
N=C(N)NCCC[C@@H]1NC(=O)[C@H](CCCCN)NC(=O)CNC(=O)[C@@H]2CSC(=N2)c2cc(ccn2)C(=O)NCCC[C@@H](C(N)=O)NC(=O)[C@H](CCCCN)NC1=O	1.76
